Data taken from US6605639B1, “Ligands of nuclear receptor” (Nuclear Receptor Research, Ltd., priority 1998, dated 2003).
Several values for one entry are separate records, joined by “and”; a condition that tells them apart may be missing. Equal entries are not always repeated. Entries after “also recorded” stand apart in the source; their conditions may differ.

Tests used:
[1] = tested on: mouse and rat; experiment: Oral administration of ascochlorin to rodents; type: in vivo
Excerpt: These effects make ascochlorin adequate as a remedy for insulin resistance syndrome. In animal experiments, however, the anorexic effect is similar to the effect of enhancing the action of insulin, which makes it highly difficult to evaluate the drug effect as an insulin enhancing agent. Thus, attempts were made to synthesis derivatives having a relatively weak anorexic effect by synthesizing various derivatives through the modification of the molecular structure of ascochlorin.

[2] = tested on: patients suffered from hypercholesterolemia; experiment: Phase I clinical test; type: in vivo, human; settings: for Serum total cholesterol: Mean ± SE
Procedure: A phase I clinical test of Compound-6, one of the compounds of the present invention, was carried out with 17 female and male patients aged 40 to 82 suffered from hypercholesterolemia. The experiment was continued for 12 weeks and Compound-6 was administered in the first 8 weeks. […] From the 8th week to the 12th week (the placebo-administration period) a placebo was given without notifying the patients. The drug in a daily dose was divided into 3 portions and taken after meals. Each patient visited the hospital once a week and was subject to investigation and blood collection for analyzing serum.

[3] = Oral administration of radioisotope-labeled compound: recovery and distribution of radioactivity; type: in vivo, rat; settings: once
Excerpt: The Schiff base formed by the reaction of the compound of the present invention with serum protein is an inactivated compound with a masked biological activity. […] It is still interesting that the radioactive compound incorporated into the adipocyte tissue was free Compound-6 dissolved in oil droplets in cells. It is unknown why the radioactivity is distributed selectively in adipocyte tissue and accumulated with the passage of time. […] Namely, the compound of the present invention is converted into a highly safe Schiff base with the masked biological activity at the step of being absorbed via digestive tract. This Schiff base is adsorbed on the target cell surface layer and incorporated into the cells via endocytosis. Then it is hydrolyzed to regenerate the free Compound-6. The free Compound-6 is dissolved in oil droplets in depot fat. In adipocytes, it is gradually dissolved in cytoplasm and exerts its effect. When depot fat in white adipocyte tissue is transported into other tissues as an energy source, the free Compound-6 is transported together with the fat. That is to say, it also serves as a depot simultaneously. The compound according to the present invention is hardly incorporated into other tissues. […] Different from retinoids, the compounds of the present invention can exert the effects without causing the side effects inherent to retinoids. The reasons are, without doubt, related to kinetics (absorption, transportation, regeneration of activated compound in target cell surface layer, etc.) of the compounds of the present invention, which differ from those of retinoids. […]

[4] = tested on: Japanese quails; experiment: Inhibition of arteriosclerosis in Japanese quails fed 1% cholesterol feed; type: in vivo, Japanese quail; design: key to Atheroma formation in arcuate aorta, grade of individual birds: 0: no atheroma.; I: coated with atheroma at a ratio of 1 to 10% of the total area.; II: coated with atheroma at a ratio of 11 to 40% of the total area.; III: coated with atheroma at a ratio of 41 to 70% of the total area.; IV: coated with atheroma at a ratio of 71 to 100% of the total area; settings: 9 months; for Atheroma formation in arcuate aorta, grade of individual birds: individuals I-VIII; for decrease of serum cholesterol level / decrease of serum neutral fat level: vs high cholesterol feed control; for Serum neutral fat / Serum total cholesterol: Mean ± SE
Procedure: When fed with a high fat diet, birds also show the onset of arteriosclerosis within a short period of time. Then 32 adult Japanese quails aged about 30 days were divided into 4 groups at random. […] The feed was prepared by adding 1% of cholesterol to a powdery protein-rich standard fed for chick and molding the mixture into pellets. Compound-6 was added in an amount of 0.16% or 0.0025% to the powdery feed and then the mixture was molded into pellets. The experiment was carried out for 9 months. During this period, the birds were allowed to take the feed and drinking water ad libitum. The feed employed in this experiment contained less fat, compared with the feed employed in the experiments with white rabbits, and was free from bile acid promoting the absorption of cholesterol from the digestive tract.
After 9 months, blood was collected and the serum total cholesterol level and the neutral fat level were measured. […] Each bird was dissected and the aorta was taken out. Then the severity was scored in 5 grades based on the ratio of atheroma to the total endosporium area and thickening of the arterial wall.

[5] = tested on: db/db mice; experiment: Calcium metabolism in db/db mice; type: in vivo, mouse; settings: administration for 1 week
Excerpt: RXR also forms a heterodimer with a nuclear receptor, VDR, which acts with active vitamin D3 (1a,25-dihydrocyvitamin D3) as a ligand. However, no study has been made so far how the formation of this heterodimer means in vivo. Thus the effect of this heterodimer on gene transcription and, in its turn, its physiological meaning still remain unknown. Activated vitamin D3 is essential for bone development and growth in children. Also, it is essential for preventing osteoporosis and bone fracture in aged and sick persons. In spite of such meaningful effects, studies have not been conducted to clarify the function of the heterodimer of VDR with RXR. The inventors studied calcium metabolism in db/db mice and the effect of Compound-14 on the calcium metabolism. This study was partly reported in 1992 (Tomoyoshi Hosokawa, Nogei Kagaku Kai-shi (J. Agr. Chem.), 66:1221-1226, 1992). Compared with normal litter of the same age, db/db mice show abnormally high levels of urinary calcium, blood calcium, blood calcitonin and parathyroid hormone. […] By feeding db/db mice over a long time of period (4 weeks), it was found out that these animals suffered form a decrease in bone mineral density compared with normal litter of the same age. […]

[6] = After 10 weeks, placebo period after 8 weeks of drug (carry-over)
[7] = After 12 weeks, placebo period after 8 weeks of drug (carry-over)

3-[5-[l(R),2(S),6(S)-trimethyl-3-oxocylohexyl]-3-methyl-2,4-pentadienyl]-2,4-dihydroxy-5-chloro-6-methylbenzaldehyde [Compound-1]
effects of oral administration ([1]; mouse and rat): anorexic effect as well as effects of lowering the blood glucose level, the serum lipid level and the serum insulin level | blood pressure ([1]; oral, anesthetized rats and hypertensive rats): potent effect of lowering blood pressure

COc1c(Cl)c(C)c(C=O)c(O)c1C/C=C(C)/C=C/[C@@]1(C)[C@H](C)CCC(=O)[C@@H]1C [Compound-6, 4-O-methylASC]
patients with vertigo ([2]; 17 patients): one | Serum total cholesterol, Decrease ([2]; After 1 week, dose 0.5 (mg.kg)): −20% | Serum total cholesterol ([2]; After 1 week, dose 0.5 (mg.kg), n = 17): 273 ± 62.7 mg/dL | Serum total cholesterol, Decrease ([2]; After 2 weeks, dose 1 (mg.kg)): −22% | Serum total cholesterol ([2]; After 2 weeks, dose 1 (mg.kg), n = 17): 266 ± 66.7 mg/dL | Serum total cholesterol, Decrease ([2]; After 3 weeks, dose 2 (mg.kg)): −21% | Serum total cholesterol ([2]; After 3 weeks, dose 2 (mg.kg), n = 17): 269 ± 66.0 mg/dL | Serum total cholesterol, Decrease ([2]; After 4 weeks, dose 4 (mg.kg)): −28% | Serum total cholesterol ([2]; After 4 weeks, dose 4 (mg.kg), n = 17): 254 ± 65.7 mg/dL | Serum total cholesterol, Decrease ([2]; After 6 weeks, dose 8 (mg.kg)): −36% | Serum total cholesterol ([2]; After 6 weeks, dose 8 (mg.kg), n = 17): 217 ± 58.8 mg/dL | Serum total cholesterol, Decrease ([2]; After 8 weeks, dose 16 (mg.kg)): −33% | Serum total cholesterol ([2]; After 8 weeks, dose 16 (mg.kg), n = 17): 229 ± 61.5 mg/dL | Serum total cholesterol, Decrease [2, 6]: −25% | Serum total cholesterol [2, 6]: 256 ± 57.6 mg/dL | Serum total cholesterol, Decrease [2, 7]: −22% | Serum total cholesterol [2, 7]: 264 ± 57.7 mg/dL | side effects, subjective or objective ([2]; daily dose 1 mg/kg to 16 mg/kg, oral): no serious side effect; also recorded: no subjective or objective side effect | blood glucose levels of 5 diabetics included in the patients, lowered to ([2]; human, in vivo): 100 mg/dL | systolic and diastolic blood pressure of patients with hypertension or borderline hypertension ([2]; human, in vivo): lowered | radioactivity incorporated into white adipocyte tissue [3]: elevated day by day | route of excretion of radioactivity [3]: mostly excreted via feces | time after which radioactivity disappeared in most of the organs [3]: 3 days | occurrence of atheroma ([4]; High-dose group (0.16%)): no atheroma | Atheroma formation in arcuate aorta, grade of individual birds ([4]; High-dose group (0.16%)): 0 | Atheroma severity score, Average ([4]; High-dose group (0.16%), n = 8): 0.00 ± 0.00 | decrease of serum cholesterol level ([4]; High-dose group): 40% | decrease of serum neutral fat level ([4]; High-dose group): 40% | Serum neutral fat, change vs control ([4]; High-dose, 0.16% in feed): −40.0% | Serum total cholesterol, change vs control ([4]; High-dose, 0.16% in feed): −40.4% | Serum neutral fat ([4]; High-dose, 0.16% in feed): 392.6 ± 46.5 mg/dL | Serum total cholesterol ([4]; High-dose, 0.16% in feed): 1200 ± 136 mg/dL | fraction of the birds with atheroma ([4]; Low-dose group (0.0025%)): ½ | Atheroma formation in arcuate aorta, grade of individual birds ([4]; Low-dose group (0.0025%)): 0 (4×) and I (coated with atheroma at a ratio of 1 to 10% of the total area.) (4×) | decrease of serum cholesterol level ([4]; Low-dose group): 25.5% | decrease of serum neutral fat level ([4]; Low-dose group): 21.6% | Serum neutral fat, change vs control ([4]; Low-dose, 0.0025% in feed): −21.6% | Serum total cholesterol, change vs control ([4]; Low-dose, 0.0025% in feed): −25.5% | Serum neutral fat ([4]; Low-dose, 0.0025% in feed): 513.1 ± 39.2 mg/dL | Serum total cholesterol ([4]; Low-dose, 0.0025% in feed): 1499 ± 120 mg/dL

CC(/C=C/[C@@]1(C)[C@H](C)CCC(=O)[C@@H]1C)=C\Cc1c(O)c(C=O)c(C)c(Cl)c1OCC(=O)O [Compound-14, 4-O-carboxymethylASC]
urinary calcium, blood calcium and calcitonin levels [5]: significantly lowered
